Reference: the CheMixHub ionic liquid set
“And” between values parts separate entries of the source, which are not always exact repeats. Equal values may be shown once.

Test: xn = mol fraction of the nth substance listed
Settings: 101.3 kPa

CCCC[N+]1(C)CCCCC1.F[P-](F)(F)(F)(F)F + CCCC[n+]1cccc(C)c1.F[P-](F)(F)(F)(F)F + CCCC[N+]1(C)CCCC1.F[P-](F)(F)(F)(F)F
viscosity
Settings | 333.15 K | 338.15 K | 343.15 K | 348.15 K | 353.15 K | 358.15 K | 363.15 K
x2 = 0.2, x1 = 0.32 | – | 194 mPa·s | 152 mPa·s | 121 mPa·s | 98 mPa·s | 80 mPa·s | 66 mPa·s
x2 = 0.3, x1 = 0.28 | – | 163 mPa·s | 129 mPa·s | 103 mPa·s | 84 mPa·s | 69 mPa·s | 57 mPa·s
x2 = 0.4, x1 = 0.06 | – | 111 mPa·s | 89 mPa·s | 72 mPa·s | 60 mPa·s | 50 mPa·s | 42 mPa·s
x2 = 0.4, x1 = 0.12 | – | 121 mPa·s | 97 mPa·s | 78 mPa·s | 64 mPa·s | 53 mPa·s | 45 mPa·s
x2 = 0.4, x1 = 0.18 | – | 125 mPa·s | 100 mPa·s | 81 mPa·s | 66 mPa·s | 55 mPa·s | 46 mPa·s
x2 = 0.4, x1 = 0.24 | – | 137 mPa·s and 138 mPa·s | 109 mPa·s | 87 mPa·s and 88 mPa·s | 71 mPa·s and 72 mPa·s | 59 mPa·s | 49 mPa·s
x2 = 0.4, x1 = 0.3 | – | 145 mPa·s | 115 mPa·s | 92 mPa·s | 75 mPa·s | 62 mPa·s | 51 mPa·s
x2 = 0.4, x1 = 0.36 | – | 155 mPa·s | 122 mPa·s | 97 mPa·s | 79 mPa·s | 65 mPa·s | 54 mPa·s
x2 = 0.4, x1 = 0.42 | – | 165 mPa·s | 129 mPa·s | 103 mPa·s | 83 mPa·s | 68 mPa·s | 56 mPa·s
x2 = 0.4, x1 = 0.48 | – | 176 mPa·s | 137 mPa·s | 109 mPa·s | 88 mPa·s | 71 mPa·s | 59 mPa·s
x2 = 0.4, x1 = 0.54 | – | 188 mPa·s | 146 mPa·s | 116 mPa·s | 93 mPa·s | 75 mPa·s | 62 mPa·s
x2 = 0.5, x1 = 0.2 | – | 117 mPa·s | 93 mPa·s | 75 mPa·s | 62 mPa·s | 51 mPa·s | 43 mPa·s
x2 = 0.6, x1 = 0.16 | 127 mPa·s | 100 mPa·s | 80 mPa·s | 65 mPa·s | 54 mPa·s | 45 mPa·s | 38 mPa·s
x2 = 0.7, x1 = 0.12 | 109 mPa·s | 87 mPa·s | 70 mPa·s | 57 mPa·s | 47 mPa·s | 39 mPa·s | 33 mPa·s
x2 = 0.8, x1 = 0.08 | 95 mPa·s | 76 mPa·s | 61 mPa·s | 50 mPa·s | 42 mPa·s | 35 mPa·s | 30 mPa·s
x2 = 0.9, x1 = 0.04 | 84 mPa·s | 67 mPa·s | 54 mPa·s | 45 mPa·s | 37 mPa·s | 31 mPa·s | 27 mPa·s
